Active and inactive are the calls of the source. No cut-off for these calls is given here.
How the values were obtained:
[1] = Binding affinity to Pseudomonas aeruginosa LecB by ITC method
Pseudomonas aeruginosa [2] = assay: Induction of bacterial aggregation in Pseudomonas aeruginosa PAO1 expressing deltalecB mutant assessed as number of aggregates per 100 uL of PBS cell solution at 100 uM by optical microscopy; assay type: functional
Pseudomonas aeruginosa [3] = assay: Inhibition of biofilm formation of Pseudomonas aeruginosa PAO1 expressing deltalecA mutant at 5 mM after 24 hrs by crystal violet staining; assay type: functional, organism-based
Pseudomonas aeruginosa [4] = assay: Inhibition of biofilm formation of Pseudomonas aeruginosa PAO1 expressing deltalecB mutant at 5 mM after 24 hrs by crystal violet staining; assay type: functional, organism-based
Pseudomonas aeruginosa [5] = assay: Induction of bacterial aggregation in Pseudomonas aeruginosa PAO1 assessed as number of aggregates per 100 uL of PBS cell solution at 100 uM by optical microscopy; assay type: functional
Pseudomonas aeruginosa [6] = assay: Antimicrobial activity Pseudomonas aeruginosa PAO1 infected C57BL6/J mouse lung injury model assessed as reduction in alveolar-capillary permeability using 1 mM compound pre-treated bacteria for infection; assay type: functional
Pseudomonas aeruginosa [7] = assay: Induction of filamentous-like and spherical bacterial aggregation in Pseudomonas aeruginosa PAO1 at 6 to 6600 uM by optical microscopy; assay type: functional, organism-based
Pseudomonas aeruginosa [8] = assay: Inhibition of Pseudomonas aeruginosa PAO1 localization at human A549 cell membranes at 250 to 2500 uM by confocal microscopy; assay type: functional, organism-based
Pseudomonas aeruginosa [9] = assay: Inhibition of deltalecB mutant expressing Pseudomonas aeruginosa PAO1 adhesion to human A549 cells 25 to 2500 uM; assay type: functional, organism-based
Pseudomonas aeruginosa [10] = assay: Induction of filamentous-like and spherical bacterial aggregation in Pseudomonas aeruginosa PAO1 expressing deltalecB mutant at 6 to 6600 uM by optical microscopy; assay type: functional, organism-based
Pseudomonas aeruginosa [11] = assay: Inhibition of biofilm formation of Pseudomonas aeruginosa PAO1 at 0.1 mM after 24 hrs by crystal violet staining; assay type: functional, organism-based
Pseudomonas aeruginosa [12] = assay: Inhibition of deltalecA mutant expressing Pseudomonas aeruginosa PAO1 adhesion to human A549 cells 25 to 2500 uM; assay type: functional, organism-based
Pseudomonas aeruginosa [13] = assay: Antimicrobial activity Pseudomonas aeruginosa PAO1 infected C57BL6/J mouse lung injury model assessed as reduction in alveolar-capillary permeability using 5 mM compound pre-treated bacteria for infection; assay type: functional
Pseudomonas aeruginosa [14] = assay: Antimicrobial activity Pseudomonas aeruginosa PAO1 infected C57BL6/J mouse lung injury model assessed as protection against lung infection using 1 to 5 mM compound pre-treated bacteria for infection; assay type: functional, organism-based
Pseudomonas aeruginosa [15] = assay: Inhibition of Pseudomonas aeruginosa PAO1 adhesion to human A549 cells 25 to 2500 uM; assay type: functional
Pseudomonas aeruginosa [16] = assay: Effect on growth of Pseudomonas aeruginosa PAO1 at 0.1 to 5 mM after 24 hrs; assay type: organism-based; settings: 5000 µM
Pseudomonas aeruginosa [17] = assay: Inhibition of biofilm formation of Pseudomonas aeruginosa PAO1 at 5 mM after 24 hrs by crystal violet staining; assay type: functional, organism-based
Pseudomonas aeruginosa [18] = assay: Induction of filamentous-like and spherical bacterial aggregation in Pseudomonas aeruginosa PAO1 expressing deltalecA mutant at 6 to 6600 uM by optical microscopy; assay type: functional, organism-based
Pseudomonas aeruginosa [19] = assay: Induction of bacterial aggregation in Pseudomonas aeruginosa PAO1 expressing deltalecA mutant assessed as number of aggregates per 100 uL of PBS cell solution at 100 uM by optical microscopy; assay type: functional, organism-based
Pseudomonas aeruginosa [20] = assay: Inhibition of deltalecA mutant expressing Pseudomonas aeruginosa PAO1 adhesion to human A549 cells 250 to 2500 uM; assay type: functional, organism-based
[21] = biological target: T1, PA-I galactophilic lectin (Pseudomonas aeruginosa (strain ATCC 15692 / PAO1 / 1C / PRS 101 / LMG12228), UniProt Q05097); assay: Binding affinity to Pseudomonas aeruginosa LecA by ITC method
T1 sequence (Q05097 whole entry): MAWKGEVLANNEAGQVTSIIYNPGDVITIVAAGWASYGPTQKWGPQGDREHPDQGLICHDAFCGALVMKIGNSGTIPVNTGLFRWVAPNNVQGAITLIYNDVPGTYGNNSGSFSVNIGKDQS

Pseudomonas aeruginosa [22] = assay: Inhibition of deltalecA mutant expressing Pseudomonas aeruginosa PAO1 adhesion to human A549 cells <250 uM; assay type: functional, organism-based
[23] = biological target: T2, PA-I galactophilic lectin (Pseudomonas aeruginosa (strain ATCC 15692 / PAO1 / 1C / PRS 101 / LMG12228)) (UniProt Q05097); assay: Binding affinity to Pseudomonas aeruginosa LecA at 1.5 mM by ITC method
T2 sequence (whole entry): T1 sequence (Q05097 whole entry)

Pseudomonas aeruginosa [24] = assay: Inhibition of biofilm formation of Pseudomonas aeruginosa PAO1 at 0.1 to 5 mM after 24 hrs by crystal violet staining; assay type: functional, organism-based
Pseudomonas aeruginosa [25] = assay: Binding affinity to Pseudomonas aeruginosa LecB at 1.5 mM by ITC method
Pseudomonas aeruginosa [26] = assay: Antimicrobial activity Pseudomonas aeruginosa PAO1 infected C57BL6/J mouse lung injury model assessed as effect on alveolar-capillary permeability using 5 mM compound pre-treated bacteria for infection; assay type: functional, organism-based
Pseudomonas aeruginosa [27] = assay: Antimicrobial activity Pseudomonas aeruginosa PAO1 infected C57BL6/J mouse lung injury model assessed as effect on alveolar-capillary permeability using 1 mM compound pre-treated bacteria for infection; assay type: functional, organism-based
Pseudomonas aeruginosa [28] = assay: Induction of bacterial aggregation in Pseudomonas aeruginosa PAO1 at 6 to 5000 uM by optical microscopy; assay type: functional, organism-based
Pseudomonas aeruginosa [29] = assay: Induction of bacterial aggregation in Pseudomonas aeruginosa PAO1 expressing deltalecA mutant at 6 to 5000 uM by optical microscopy; assay type: functional, organism-based
Pseudomonas aeruginosa [30] = assay: Induction of bacterial aggregation in Pseudomonas aeruginosa PAO1 expressing deltalecB mutant at 6 to 5000 uM by optical microscopy; assay type: functional, organism-based

SMILES | Kd [1] [nM] | Activity (Pseudomonas aeruginosa [2]) | inhibition (Pseudomonas aeruginosa [3]) | inhibition (Pseudomonas aeruginosa [4]) | Activity (Pseudomonas aeruginosa [5]) | inhibition (INH) (Pseudomonas aeruginosa [15]) [%] | Activity (Pseudomonas aeruginosa [19]) | inhibition (Pseudomonas aeruginosa [24]) | Activity (Pseudomonas aeruginosa [28]) | Activity (Pseudomonas aeruginosa [29]) | Activity (Pseudomonas aeruginosa [30]) | other results
CC(C)(C)c1cc2c(OCc3cn(CCOCCOCCO[C@H]4O[C@H](CO)[C@@H](O)[C@H](O)[C@@H]4O)nn3)c(c1)Cc1cc(C(C)(C)C)cc(c1OCc1cn(CCOCCOCCO[C@H]3O[C@H](CO)[C@@H](O)[C@H](O)[C@@H]3O)nn1)Cc1cc(C(C)(C)C)cc(c1OCc1cn(CCOCCOCCO[C@H]3O[C@H](CO)[C@@H](O)[C@H](O)[C@@H]3O)nn1)Cc1cc(C(C)(C)C)cc(c1OCc1cn(CCOCCOCCO[C@H]3O[C@H](CO)[C@@H](O)[C@H](O)[C@@H]3O)nn1)C2 | 2270 | 11 | inactive | inactive | 70 |  |  |  |  |  |  | 
C[C@@H]1O[C@@H](OCCOCCOCCn2cc(CO)nn2)[C@@H](O)[C@H](O)[C@@H]1O | 304 |  |  |  |  |  |  |  |  |  |  | 
C[C@@H]1O[C@@H](OCCOCCOCCn2cc(COc3c4cc(C(C)(C)C)cc3Cc3cc(C(C)(C)C)cc(c3OCc3cn(CCOCCOCCO[C@@H]5O[C@@H](C)[C@@H](O)[C@@H](O)[C@@H]5O)nn3)Cc3cc(C(C)(C)C)cc(c3OCc3cn(CCOCCOCCO[C@@H]5O[C@@H](C)[C@@H](O)[C@@H](O)[C@@H]5O)nn3)Cc3cc(C(C)(C)C)cc(c3OCc3cn(CCOCCOCCO[C@@H]5O[C@@H](C)[C@@H](O)[C@@H](O)[C@@H]5O)nn3)C4)nn2)[C@@H](O)[C@H](O)[C@@H]1O | 48 | 50 | Active | Active |  | 90 |  |  |  |  |  | inhibition (INH) (Pseudomonas aeruginosa [6]): 50%; Activity (Pseudomonas aeruginosa [7]): Active; inhibition (Pseudomonas aeruginosa [8]): Active; inhibition (Pseudomonas aeruginosa [9]): inactive; Activity (Pseudomonas aeruginosa [10]): Active; inhibition (Pseudomonas aeruginosa [11]): inactive; inhibition (Pseudomonas aeruginosa [12]): Active; inhibition (INH) (Pseudomonas aeruginosa [13]): 50%; Activity (Pseudomonas aeruginosa [14]): inactive; Activity (Pseudomonas aeruginosa [16]): Non-toxic; inhibition (Pseudomonas aeruginosa [17]): Active
C[C@H]1O[C@@H](OCCOCCOCCn2cc(COc3c4cc(C(C)(C)C)cc3Cc3cc(C(C)(C)C)cc(c3OCc3cn(CCOCCOCCO[C@@H]5O[C@H](CO)[C@H](O)[C@H](O)[C@H]5O)nn3)Cc3cc(C(C)(C)C)cc(c3OCc3cn(CCOCCOCCO[C@@H]5O[C@H](CO)[C@H](O)[C@H](O)[C@H]5O)nn3)Cc3cc(C(C)(C)C)cc(c3OCc3cn(CCOCCOCCO[C@@H]5O[C@H](CO)[C@H](O)[C@H](O)[C@H]5O)nn3)C4)nn2)[C@H](O)[C@@H](O)[C@H]1O |  |  | Active | Active |  | 70 | inactive |  |  |  |  | inhibition (INH) (Pseudomonas aeruginosa [6]): 50%; Activity (Pseudomonas aeruginosa [18]): inactive; Activity (Pseudomonas aeruginosa [7]): Active; inhibition (Pseudomonas aeruginosa [8]): Active; inhibition (Pseudomonas aeruginosa [20]): Active; inhibition (Pseudomonas aeruginosa [11]): inactive; inhibition (INH) (Pseudomonas aeruginosa [13]): 50%; Activity (Pseudomonas aeruginosa [14]): inactive; Kd [21]: 176 nM; inhibition (Pseudomonas aeruginosa [22]): inactive; Activity (Pseudomonas aeruginosa [16]): Non-toxic; inhibition (Pseudomonas aeruginosa [17]): Active
CC(C)(C)c1cc2c(OCc3cn(CCOCCOCCO[C@@H]4O[C@H](CO)[C@@H](O)[C@H](O)[C@H]4O)nn3)c(c1)Cc1cc(C(C)(C)C)cc(c1OCc1cn(CCOCCOCCO[C@@H]3O[C@H](CO)[C@@H](O)[C@H](O)[C@H]3O)nn1)Cc1cc(C(C)(C)C)cc(c1OCc1cn(CCOCCOCCO[C@@H]3O[C@H](CO)[C@@H](O)[C@H](O)[C@H]3O)nn1)Cc1cc(C(C)(C)C)cc(c1OCc1cn(CCOCCOCCO[C@@H]3O[C@H](CO)[C@@H](O)[C@H](O)[C@H]3O)nn1)C2 |  | inactive | inactive | inactive | inactive |  | inactive | inactive |  |  |  | Activity [23]: inactive; Activity (Pseudomonas aeruginosa [25]): inactive
CO[C@@H]1O[C@H](CO)[C@H](O)[C@H](O)[C@H]1O |  | inactive |  |  | inactive | 30 | inactive | inactive | inactive | inactive | inactive | Activity (Pseudomonas aeruginosa [26]): inactive; Activity (Pseudomonas aeruginosa [27]): inactive; inhibition (Pseudomonas aeruginosa [22]): inactive
CO[C@H]1O[C@H](CO)[C@@H](O)[C@H](O)[C@@H]1O |  | inactive |  |  | inactive |  | inactive |  |  |  |  | 
CO[C@H]1O[C@H](CO)[C@H](O)[C@H](O)[C@H]1O |  | inactive |  |  | inactive |  | inactive |  | inactive | inactive | inactive | 
OCc1cn(CCOCCOCCO[C@@H]2O[C@H](CO)[C@H](O)[C@H](O)[C@H]2O)nn1 |  |  |  |  |  |  |  |  |  |  |  | Kd [21]: 150000 nM
CO[C@@H]1O[C@@H](C)[C@@H](O)[C@@H](O)[C@@H]1O |  |  |  |  |  | 65 |  | inactive | inactive | inactive | inactive | Activity (Pseudomonas aeruginosa [26]): inactive; inhibition (Pseudomonas aeruginosa [9]): inactive; Activity (Pseudomonas aeruginosa [27]): inactive; inhibition (Pseudomonas aeruginosa [12]): Active
